Data from patent EP3298025B1, “NEW AMINO ACID SEQUENCES WITH MI[…] DERIVED FROM NAJA ATRA CARDIOTOXIN 1 (CTX-1)” (Università degli Studi di Parma, priority 2015, dated 2016).
Several values for one entry are separate records, joined by “and”; a condition that tells them apart may be missing. Identical values can stand only once. Residues, ends and D or L forms follow the SMILES beside them.

How the values were obtained:
Format in all cases: cell-based
[1] = test system: Burkholderia cepacia ATCC 17759; test: micro-dilution in liquid medium and transplant on agar, Gram-negative bacteria; details: 2 hours at 37°C, transplant on agar
Procedure: (§1) For each bacterial strain 3-5 morphologically similar colonies from fresh cultures were taken and inoculated in Brain Heart Infusion broth, then incubated at 37°C in agitation at 225 r.p.m. for about 3-4 hours. Then the bacterial suspension was centrifuged at 1000 G for 20 minutes and the pellet resuspended in phosphate buffer pH 7, 10 mM. The turbidity of the bacterial suspension was measured using a spectrophotometer with absorbance of 600 nm; the range 0.08-0.13 equates to about 10^8 cfu/ml. The bacterial suspension was diluted 1:100 in phosphate buffer 10mM to obtain a bacterial concentration of about 10^6 cfu/ml. Within 30 minutes 50 µl of the suspension (10^6 cfu/ml) were inoculated in each well of the microtiter plate, to obtain a bacterial concentration of about 5x10^5 cfu/ml.
(§2) The peptides ability to inhibit the bacterial growth in liquid cultures was tested. 50 µl of each peptides solutions of about 0,2-50 µM were added in microtiter plates with 96 wells with U-shaped bottom, containing the liquid culture medium and one of these bacterial strains: E coli ATCC 25922, Pseudomonas. Aeruginosa ATCC 27853, Proteus mirabilis ATCC 14153, Burkholderia cepacia ATCC 17759, Moraxella catharralis ATCC 25238 or other wild strains of Klebsiella pneumoniae subsp. pneumoniae, Enterobacter cloacae, Acinetobacter baumanii.
(§3) After 2 hours incubation at 37°C, the bacteria were transplanted on solid medium. As a growth reference, bacterial cultures were grown in absence of peptides.
(§4) The bacterial suspension and peptides were put in contact for 2 hours at 37°C, with differing concentrations of the peptide. Then 20 µl from each well of the plate were taken and transferred on solid culture medium, McConkey agar. The inoculum was uniformly distributed on the agar medium with aid of a sterile disposable handle. After an incubation time of 24 hours at 37°C, the bacterial colonies (cfu) were counted.

[2] = test system: Acinetobacter baumanii from cloaca (ornithological); test: as above; details: 2 hours at 37°C, transplant on agar
Procedure: as §1, §2, §3, §4

[3] = test system: Klebsiella pneumoniae subsp. pneumoniae (herpetological); test: as above; details: 2 hours at 37°C, transplant on agar
Procedure: as §1, §2, §3, §4

[4] = test system: Acinetobacter baumanii from cloaca (herpetological); test: as above; details: 2 hours at 37°C, transplant on agar
Procedure: as §1, §2, §3, §4

[5] = test system: E. coli ATCC 25922; test: as above; details: 2 hours at 37°C, transplant on agar
Procedure: as §1, §2, §3, §4

[6] = test system: Acinetobacter baumanii (human strain); test: as above; details: 2 hours at 37°C, transplant on agar
Procedure: as §1, §2, §3, §4

[7] = test system: Enterobacter cloacae (herpetological); test: as above; details: 2 hours at 37°C, transplant on agar
Procedure: as §1, §2, §3, §4

[8] = test system: Pseudomonas aeruginosa ATCC 27853; test: as above; details: 2 hours at 37°C, transplant on agar
Procedure: as §1, §2, §3, §4

[9] = test system: Proteus mirabilis ATCC 14153; test: as above; details: 2 hours at 37°C, transplant on agar
Procedure: as §1, §2, §3, §4

[10] = test system: Acinetobacter baumanii from skin (herpetological); test: as above; details: 2 hours at 37°C, transplant on agar
Procedure: as §1, §2, §3, §4

[11] = test system: Moraxella catharralis ATCC 25238; test: as above; details: 2 hours at 37°C, transplant on agar
Procedure: as §1, §2, §3, §4

[12] = test system: Candida albicans ATCC 10231; test: micro-dilution in liquid medium and transplant on solid medium, yeasts; details: 2 hours at 37°C, transplant on agar Sabouraud
Procedure: (§5) Candida albicans ATCC 10231, Candida glabrata ATCC 2001 and Malassetia pachydermatis ATCC 14522 were cultivated in Czapek-Dox broth (DIFCO) medium for 48-72 hours. On the day of the test the fungal culture was centrifuged at 1700G for 15 minutes and the pellet resuspended in phosphate buffer, then put in agitation on an electric vortex to disrupt fungal cell aggregations. The suspension was diluted to get a final optical density of 0,5 of the McFarland scale (about 1-5x10^6 cell/ml) (Branda J.A., Krantz A. Effect of yeast on automated cell counting. Am J Clin Pathol., 2006:126, 248-254.).
(§6) Peptides ability to inhibit the fungal growth in liquid cultures was tested. 50 µl of each peptides solutions of about 0.2-50 µM were added in microtiter plates with 96 wells with U-shaped bottom, with liquid culture medium and one of these fungi: Candida albicans ATCC 10231, Candida glabrata ATCC 2001 and Malassetia pachydermatis ATCC 14522. After 2 hours of incubation at 37°C, fungal suspensions were plated on solid culture medium, agar Sabouraud. Fungal cultures were cultivated without peptides as growth control.
(§7) the fungal suspension and peptides at differing concentrations were in contact for about 2 hours at 37°C. After this incubation, 20 µl from every well of the plate were transplanted on solid culture medium, agar Sabouraud. The inoculum was evenly distributed on the agar with the aid of a sterile disposable handle. After an incubation time of 24 hours at 37°C, the fungal colonies (cfu) were counted.

[13] = test system: Malassetia pachydermatis ATCC 14522; test: as above; details: 2 hours at 37°C, transplant on agar Sabouraud
Procedure: as §5, §6, §7

[14] = test system: Candida glabrata ATCC 2001; test: as above; details: 2 hours at 37°C, transplant on agar Sabouraud
Procedure: as §5, §6, §7

For `CC[C@H](C)[C@H](NC(=O)[C@H](CCCCN)NC(=O)[C@H](Cc1ccc(O)cc1)NC(=O)[C@H](CS)NC(=O)[C@H](CC(C)C)NC(=O)[C@H](CC(N)=O)NC(=O)[C@H](CCCCN)NC(=O)CNC(=O)[C@H](C)NC(=O)[C@@H]1CCCN1C(=O)[C@H](CS)NC(=O)[C@@H](NC(=O)[C@H](CCCCN)NC(=O)[C@H](CO)NC(=O)[C@H](C)NC(=O)[C@@H](NC(=O)[C@@H]1CCCN1C(=O)[C@@H](NC(=O)[C@H](CC(C)C)NC(=O)[C@@H](N)CCCCN)[C@@H](C)CC)[C@@H](C)CC)[C@@H](C)O)C(=O)O` [NCP-0, K LIPIA SKT CPA GKN LCY KI] (H-KLIPIASKTCPAGKNLCYKI-OH; N-terminus and C-terminus assumed), the LD90 [1] was 39.35 µg/ml and 17.8 µM, the LD99 [1] was 39.43 µg/ml and 18.3 µM and the LD90 [2] was 126.205 µg/ml and 58.4 µM. For the same compound, the LD99 [2] was 127,26 µg/ml and 59 µM, the LD90 [3] was > 100 µg/ml and > 46.3 µM and the LD99 [3] was > 200 µg/ml and > 92.6 µM. For the same compound, the LD90 [4] was 142.80 µg/ml and 66.1 µM, the LD99 [4] was 202.98 µg/ml and 94 µM and the LD90 [5] was 152.02 µg/ml and 70 µM. The LD90 [6] was 123.77 µg/ml and 57.3 µM, the LD99 [6] was 131.55 µg/ml and 61 µM and the LD90 [7] was > 100 µg/ml and > 46.3 µM. For the same compound, the LD99 [7] was > 200 µg/ml and > 92.6 µM, the LD90 [8] was > 100 µg/ml and > 46.3 µM and the LD99 [8] was > 200 µg/ml and > 92.6 µM. For the same compound, the LD90 [9] was > 100 µg/ml and > 46.3 µM, the LD99 [9] was > 200 µg/ml and > 92.6 µM and the LD99 [10] was 117.96 µg/ml and 54.6 µM. For the same compound, the LD90 [11] was 0.8 µg/ml and 0.4 µM, the LD99 [11] was 1.6 µg/ml and 0.7 µM and the LD90 [12] was > 100 µg/ml and > 46.3 µM. The LD99 [12] was > 200 µg/ml and > 92.6 µM, the LD90 [13] was 150.82 µg/ml and 69.8 µM and the LD99 [13] was 151.87 µg/ml and 70.3 µM. The LD90 [14] was > 100 µg/ml and > 46.3 µM and the LD99 [14] was > 200 µg/ml and > 92.6 µM.
